Experimental data published in ChEMBL document CHEMBL3400033, “Molecular docking and antiviral activity of N-substituted benzyl/phenyl-2-(3,4-dimethyl-5,5-dioxidopyrazolo[4,3-c][1,2]benzothiazin-2(4H)-yl)acetamides” (Bioorg Med Chem Lett, 2015).

Assays:
[1] = test system: Human immunodeficiency virus 1; experiment: Antiviral activity against HIV1 LAV-1 infected in human PBMC cells after 6 days by RT assay; format: functional, organism-based; settings: Human immunodeficiency virus 1, LAV-1, PBMC, 144 h
[2] = test system: Vero; experiment: Cytotoxicity against african green monkey Vero cells assessed as reduction in cell viability after 5 days by Cell Titer 96 Aqueous One Solution cell proliferation assay; format: cell-based; settings: Chlorocebus sabaeus, 120 h
[3] = test system: PBMC; experiment: Cytotoxicity against human PBMC cells assessed as reduction in cell viability after 5 days by Cell Titer 96 Aqueous One Solution cell proliferation assay; format: cell-based; settings: 120 h
[4] = test system: CCRF-CEM; experiment: Cytotoxicity against human CEM cells assessed as reduction in cell viability after 5 days by Cell Titer 96 Aqueous One Solution cell proliferation assay; format: cell-based; settings: 120 h
[5] = test system: Human immunodeficiency virus 1; experiment: Antiviral activity against HIV1; format: functional, organism-based

Compound | EC50 [1] | EC90 [1] | IC50 [2] | IC50 [3] | IC50 [4] | EC50 [5]
Cc1c2c(nn1CC(=O)Nc1ccccc1F)-c1ccccc1S(=O)(=O)N2C | 7.6 µM | 35.4 µM | 28.2 µM | 18 µM | 9.5 µM | 
Cc1c2c(nn1CC(=O)Nc1ccccc1Br)-c1ccccc1S(=O)(=O)N2C | 6.5 µM | 15.7 µM | 8.2 µM | 2.4 µM | 6 µM | 
Cc1ccccc1CNC(=O)Cn1nc2c(c1C)N(C)S(=O)(=O)c1ccccc1-2 | ≥ 100 µM | > 100 µM | > 100 µM | > 100 µM | > 100 µM | 
COc1ccc(CNC(=O)Cn2nc3c(c2C)N(C)S(=O)(=O)c2ccccc2-3)cc1 | 18.6 µM | ≥ 100 µM | 73 µM | > 100 µM | > 100 µM | 
Cc1c2c(nn1CC(=O)NCc1ccc(F)cc1)-c1ccccc1S(=O)(=O)N2C | 22.4 µM | ≥ 100 µM | > 100 µM | > 100 µM | 41.9 µM | 
Cc1c2c(nn1CC(=O)NCc1ccccc1F)-c1ccccc1S(=O)(=O)N2C | 57.5 µM | ≥ 100 µM | 96.1 µM | 87.5 µM | 82 µM | 
COc1cccc(CNC(=O)Cn2nc3c(c2C)N(C)S(=O)(=O)c2ccccc2-3)c1 | 21.1 µM | 92 µM | 31.1 µM | 18.7 µM | 28.8 µM | 
Cc1ccc(CNC(=O)Cn2nc3c(c2C)N(C)S(=O)(=O)c2ccccc2-3)cc1 | 9.9 µM | 77.7 µM | 63.1 µM | 52.2 µM | > 100 µM | 
C/C(=N\NC(=O)CN1c2c(-c3ccccc3)n[nH]c2-c2ccccc2S1(=O)=O)c1cc(Cl)sc1Cl |  |  |  |  |  | 3.2 µM
COc1cccc(NC(=O)Cn2nc3c(c2C)N(C)S(=O)(=O)c2ccccc2-3)c1 | 7.2 µM | 17.3 µM | ≥ 100 µM | 10.5 µM | 9.3 µM | 
COc1ccccc1CNC(=O)Cn1nc2c(c1C)N(C)S(=O)(=O)c1ccccc1-2 | 17.2 µM | 60.3 µM | > 100 µM | ≥ 100 µM | > 100 µM | 
Cc1c2c(nn1CC(=O)NCc1ccccc1Br)-c1ccccc1S(=O)(=O)N2C | 16.7 µM | 87.5 µM | 36.5 µM | 63.1 µM | 38.1 µM | 
COc1ccc(NC(=O)Cn2nc3c(c2C)N(C)S(=O)(=O)c2ccccc2-3)c(OC)c1 | > 100 µM | > 100 µM | > 100 µM | > 100 µM | > 100 µM | 
Cc1c2c(nn1CC(=O)Nc1cccc(Br)c1)-c1ccccc1S(=O)(=O)N2C | 6.3 µM | 15.3 µM | 7.2 µM | 8.1 µM | 5.2 µM | 
Cc1c2c(nn1CC(=O)NCc1ccccc1Cl)-c1ccccc1S(=O)(=O)N2C | 15.9 µM | 28.5 µM | 38.7 µM | 74.2 µM | 68.4 µM | 
Cc1c2c(nn1CC(=O)Nc1ccccc1)-c1ccccc1S(=O)(=O)N2C | 6.8 µM | 16.3 µM | 6.8 µM | 7.7 µM | < 1 µM | 
